Marks after values point to notes of the source that are not given here.
Key:
[1] = Transient absorption spectroscopy (triplet excited state); assay type: physicochemical; conditions: for TTAbs (ΔA, t = 0): methanol, Abs=0.7 at λex, λex=355 nm for 4a and 4b, 425 nm for 4c, immediately following the laser pulse
Method: Transient absorption experiments were carried out both in methanol and in water (excitation at 355 nm, 5 ns pulse, […] fluence). […] The important photophysical data obtained in methanol solution are consolidated in Table 1 (see supporting information for data in aqueous solution). FIGS. 5 and 6 compare transient absorption difference spectra obtained immediately following the laser pulse in methanol. […] Pulse energy and ground state absorption matched. […] The response curves from each of the repetitive time increments is indicated by sequential numbers 1-8 in both FIGS. 6A and 6B. Samples were purged with argon for 45 min before the measurements. A higher life time is observed for the triplet excited state in water than in methanol.
(§1) NMR spectra were recorded using a Varian VXR-300 FT-NMR, operating at 300 MHz for ^1H NMR and at 75.4 MHz for ^13C NMR. UV-Visible spectra were recorded using a Varian Cary 100 dual beam spectrophotometer. Corrected steady-state fluorescence spectra were obtained with a PTI spectrometer. A 1 cm square quartz cuvette was used for solution spectra, and emission was collected at 90° relative to excitation beam. Fluorescence quantum yields are reported relative to known standards. The optical density of solutions at the excitation wavelength was ≦0.1, and corrections were applied for differences in the refractive index of standard and sample solutions. Transient absorption spectra were collected using a laser systems that is described elsewhere.^17,18 The optical density of the solutions was adjusted to ˜0.7 at the excitation wavelength (355 nm) with the laser energy set at 6-7 mJ. Solutions were purged with argon for 45 min before making transient absorption spectroscopy measurements. Singlet oxygen quantum yields were measured using a Photon Technology International Quantamaster near-IR spectrophotometer equipped with an InGaAs photodiode detector, optical chopper and a lock in amplifier.

Fluorescence lifetime = assay type: physicochemical; conditions: component amplitude in brackets
[2] = tested on: Staphylococcus aureus (ATCC 10832); test: Antibacterial studies, dead/live assay by flow cytometry (SYTO21 / propidium iodide); assay type: cell-based; conditions: for dark antibacterial activity / dark toxicity (in words) / light-dependent toxicity versus the bacterial cells (in words) / percentage of killed S. aureus cells: 1 μg/mL oligomer; for dark antibacterial activity / dark toxicity (in words) / light-dependent toxicity versus the bacterial cells (in words): up to 90 min
Excerpt: There has been an increasing interest in the prevention of staphylococcal infections because of the increasing number of infections caused by methicillin-resistant S. aureus (MRSA), which is the most common cause of hospital-acquired infections. Our previous studies with oligo (phenylene ethynylene) type oligomers have clearly established that these oligomers are effective against variety of bacteria in the presence of light. […] As our objective is to develop visible light activated biocidal oligomers, we investigated the antibacterial activity of compounds 4a-c and against Staphylococcus aureus (S. aureus). After oligomer solutions were incubated with S. aureus under visible light illumination or in the dark, the antibacterial effect of the three oligomers was evaluated at time 0, 15, 30, 45, 60, and 90 min by flow cytometry analysis after staining the bacterial suspensions with live/dead fluorescent dyes (SYTO21, green fluorescence=live, and propidium iodide, red fluorescence=dead). FIGS. 7 and 8 show plots of the percentage of dead bacteria cells versus light exposure time of the thiophene-based oligomeric series at […]. […] The antibacterial efficiency of three oligomers increases with increasing irradiation time. In the control sample where oligomers were not added to the bacterial suspension most cells (>90% as shown in flow cytometry data) were viable and appear green fluorescence. Dark antibacterial activity was not observed from 4a and 4b; however, 4c kills ˜27% of bacteria after 90 min of incubation of bacteria with 4c.
Staphylococcus aureus (ATCC 10832, American Type Culture Collection) was grown in Brain Heart Infusion (BHI, Difco) and stored at […] with 20% (v/v) glycerol (EMD) before use. Stock cultures maintained on agar plates (2%, Difco) were used to inoculate 50 mL cultures in liquid BHI. The cultures were incubated at 37° C. for 18 hours. The bacteria were then centrifuged and washed twice with 0.85% NaCl followed by counting in a hemocytometer to normalize bacterial concentration in 20 mL of 0.85% NaCl (8×10^6 cells/mL) for antibacterial tests. Control samples containing only bacterial cells, and desired concentrations of oligomer/bacteria mixture samples were exposed to the visible light for 15, 30, 45, 60 and 90 min in a LuzChem ORG photoreactor using Sylvania T5 bulbs (λ=350-799 nm). Another set of samples were incubated in the dark for 15, 30, 45, 60 and 90 min. Then dead/live assays were conducted using SYTO21 (green fluorescence=live) and propidium iodide (red fluorescence=dead) purchased from Invitrogen. After bacteria were incubated with the oligomers in the light and dark conditions, a 1:1 ratio of dyes (2.4 μL) were added to the samples and kept in the dark for 15 min. Finally, the bacteria were examined using an Accuri C6 flow cytometer where 2×10^4 cells were analyzed from 8×10^6 cell solution. The number of live cells and dead cells corresponding to green and red fluorescence respectively were counted and compared by flow cytometry. Results are shown graphically in FIGS. 7 and 8.

[3] = UV-Visible absorption spectra; assay type: physicochemical; conditions: for λmax (absorption): MeOH; for λmax (Absorption/nm): Water
Method: as §1

[4] = Steady-state fluorescence spectra and fluorescence quantum yields relative to known standards; assay type: physicochemical
Method: as §1

[5] = Singlet oxygen quantum yield (sensitization, emission at 1260 nm); assay type: physicochemical; conditions: CD3OD; 2′-acetonaphthone (ΦΔ = 0.79) as actinometer
Excerpt: The important and necessary feature of the biocidal agents triggered by light is their ability to sensitize the formation of singlet oxygen. Having established the formation of triplet state by direct excitation of the oligomers 4a and 4b (but not 4c), we determined their ability to sensitize singlet oxygen in deuterated methanol (ΦΔ, Table 1). […] From the above results it is evident that the oligomer with terthiophene back bone is the most efficient sensitizer for singlet oxygen.
as §1

[6] = tested on: Staphylococcus aureus (ATCC 10832); test: Antibacterial studies, dead/live assay by flow cytometry (SYTO21 / propidium iodide); assay type: cell-based; conditions: visible light substituted with UV light
[7] = visible light, 90 min of irradiation
[8] = MeOH, quinine sulfate in 0.1M sulfuric acid (ΦF = 0.54) as actinometer
[9] = Water, quinine sulfate in 0.1M sulfuric acid (ΦF = 0.54) as actinometer

TTAbs (λ/nm)/MeOH [1] [nm]	TTAbs (λ/nm) in Water ([1]; Water) [nm]	λmax (Absorption/nm) [3] [nm]	λmax (fluorescence) ([4]; MeOH) [nm]	λmax (Fluorescence/nm) ([4]; Water) [nm]	SMILES	TTAbs (ΔA, t = 0) [1]	dark antibacterial activity / dark toxicity (in words) ([2]; dark)	light-dependent toxicity versus the bacterial cells (in words) ([2]; visible light)	percentage of killed S. aureus cells [2, 7]	λmax (absorption) [3] [nm]	ΦF (fluorescence quantum yield) [4, 8]	ΦF (fluorescence quantum yield) [4, 9]	ΦΔ (singlet oxygen quantum yield) [5]	also measured
492	492	385	460	460	Cn1nc2c(-c3ccc(CCC[N+](C)(C)C)s3)ccc(-c3ccc(CCC[N+](C)(C)C)s3)c2n1.[Cl-].[Cl-] [4b]	0.39	not observed	marked light-dependent toxicity	about 35%	390	0.51 ± 0.02	0.340 ± 0.02	0.49 ± 0.03	
529	529	454	615	610	C[N+](C)(C)CCCc1ccc(-c2ccc(-c3ccc(CCC[N+](C)(C)C)s3)c3nsnc23)s1.[Cl-].[Cl-] [4c]		significant dark toxicity	marked light-dependent toxicity	about 35%				no singlet oxygen emission was detected	percentage of killed S. aureus cells ([2]; dark, 90 min of incubation): ~27%; ΦF (fluorescence quantum yield) ([4]; MeOH, fluorescein in 0.1M NaOH (ΦF = 0.92) as actinometer): 0.23 ± 0.02^b

SMILES	TTAbs (λ/nm)/MeOH [1] [nm]	TTAbs (λ/nm) in Water ([1]; Water) [nm]	λmax (Absorption/nm) [3] [nm]	λmax (fluorescence) ([4]; MeOH) [nm]	λmax (Fluorescence/nm) ([4]; Water) [nm]	TTAbs (ΔA, t = 0) [1]	dark antibacterial activity / dark toxicity (in words) ([2]; dark)	light-dependent toxicity versus the bacterial cells (in words) ([2]; visible light)	percentage of killed S. aureus cells [2, 7]	λmax (absorption) [3] [nm]	ΦF (fluorescence quantum yield) [4, 8]	ΦF (fluorescence quantum yield) [4, 9]	ΦΔ (singlet oxygen quantum yield) [5]	also measured
C[N+](C)(C)CCCc1ccc(-c2ccc(-c3ccc(CCC[N+](C)(C)C)s3)s2)s1.[Cl-].[Cl-] [4a]	467	467	368	437	437	0.55	not observed	marked light-dependent toxicity	~93%	364	0.06 ± 0.02	0.058 ± 0.02	0.74 ± 0.02	TTAbs (ΔA, t = 0) in Water ([1]; Water): 0.43; τtriplet (μs) in Water ([1]; Water): 17.9 μs; τF/ns (MeOH) (Fluorescence lifetime; MeOH, 4a at 450 nm): 0.18 ns; τF/ns (Water) (Fluorescence lifetime; Water, 4a 450 nm, 4b 500 nm, 4c 600 nm): 0.19 ns; biocidal activity at higher concentrations (in words) ([2]; in the presence of light, 5 and 10 μg/mL): virtually eliminates the bacterial population within a few minutes; concentration at which the compound is an effective biocide ([2]; in the presence of light, within 30 minutes): ≥ 1 µg/mL; shift of absorption in water compared to methanol ([3]; red shift for 4a, blue shift for 4b and 4c): ~4 nm; light activated antibacterial activity under UV light (in words) [6]: the most efficient compound in killing bacteria in the presence of light

Source: patent US9125415B2, “Thiophene based oligomers as light activated biocides” (STC, UNM, priority 2011, dated 2015)
